{
  "source": "patent US20070025920A1",
  "about": "“Stable Pharmaceutical Solution Formulations for Pressurized Metered Dose Inhalers” (priority 2004, published 2007)",
  "key": {"[1]": {"experiment": "Stability study of 1 μg/63 μl formulations with 0.1M hydrochloric acid, upright cans at 40° C. and 75% relative humidity", "assay_type": "physicochemical", "settings": "15 w/w ethanol, HFA 134a, three months", "procedure": "Two aluminum canisters having the internal surface coated with Teflon and fitted with commercial valves having a 63 μl metering chamber were filled with the following formulations shown in Table 3. A stability study was carried out by storing the formulations in upright cans at 40° C. and 75% relative humidity."}, "[2]": {"settings": "4 μg per actuation, HCl-stabilised HFA 134a/ethanol solution; stored upright at 5° C.; after nine months; mean of 2 cans; cited from earlier work"}, "[3]": {"settings": "3.5 μg/50 μl, cited from earlier work"}, "[4]": {"experiment": "Stability study of the 1 μg/63 μl formulation with 15.2 M phosphoric acid, upright and inverted cans at 40° C. and 75% relative humidity", "assay_type": "physicochemical", "settings": "15% w/w ethanol, HFA 134a, 15.2 M phosphoric acid 0.001 to 0.0027% w/w, six months", "procedure": "The formulation of Table 4 (120 actuations/canister, overage of 30 actuations) was filled in aluminum canisters having the internal surface coated with Teflon and fitted with commercial valves having a 63 μl metering chamber. A stability study was carried out by storing the formulation in upright and inverted cans at 40° C. and 75% relative humidity."}, "[5]": {"experiment": "Stability of the TA 2005 + budesonide HFA 134a composition with phosphoric acid, 40° C. and 75% relative humidity", "assay_type": "physicochemical", "settings": "TA 2005 1 μg + budesonide 200 μg/actuation, phosphoric acid 85% 0.0032 or 0.0064% w/w, 0.15% w/w water, three months", "procedure": "Two compositions were tested containing TA 2005 and budesonide as active ingredients and two different concentrations of phosphoric acid.\nVolume of the valve: 63 μl; strength: TA 2005 1 μg+budesonide 200 μg/actuation; no. of actuations: 120 (34 overfilling doses).\nThe two active ingredients in the compositions were stable after three months storage at 40° C. and 75% relative humidity, giving residual percent amounts of at least 95% TA 2005 and about 100% of Budesonide."}},
  "note": "Like-named read-outs stand apart in the source and are kept apart here.",
  "data": [
    {"smiles": "COc1ccc(C[C@@H](C)NC[C@H](O)c2ccc(O)c3[nH]c(=O)ccc23)cc1.Cl", "note": "[TA 2005, 8-hydroxy-5-[(1R)-1-hydroxy-2-[[(1R)-2-(4-methoxyphenyl)-1-methylethyl]amino]ethyl]-2(1H)-quinolinone hydrochloride]", "values": [
      {"measurement": "percent amount of TA 2005", "setting": "[1]; hydrochloric acid 0.1M 0.018 w/w", "result": 73, "unit": "%"},
      {"measurement": "percent amount of TA 2005", "setting": "[1]; hydrochloric acid 0.1M 0.027 w/w", "result": 77, "unit": "%"},
      {"measurement": "TA 2005 assay", "setting": "[2]", "result": "higher than 95%"},
      {"measurement": "TA 2005 content, per cent nominal drug concentration", "setting": "[3]; HFA 134a, 12% w/w ethanol, 1.0% w/w isopropyl myristate, 1.0 μl 0.08M HCl per can (apparent pH about 4.8), Initial", "result": 100.0, "unit": "per cent"},
      {"measurement": "TA 2005 content, per cent nominal drug concentration", "setting": "[3]; HFA 134a, 12% w/w ethanol, 1.0% w/w isopropyl myristate, 1.4 μl 0.08M HCl per can (apparent pH about 3.2), Initial", "result": 100.0, "unit": "per cent"},
      {"measurement": "TA 2005 content, per cent nominal drug concentration", "setting": "[3]; 1.0 μl 0.08M HCl per can, 50° C., 22 days upright", "result": 98.3, "unit": "per cent"},
      {"measurement": "TA 2005 content, per cent nominal drug concentration", "setting": "[3]; 1.0 μl 0.08M HCl per can, 50° C., 83 days upright", "result": 99.4, "unit": "per cent"},
      {"measurement": "TA 2005 content, per cent nominal drug concentration", "setting": "[3]; 1.4 μl 0.08M HCl per can, 50° C., 22 days upright", "result": 98.2, "unit": "per cent"},
      {"measurement": "TA 2005 content, per cent nominal drug concentration", "setting": "[3]; 1.4 μl 0.08M HCl per can, 50° C., 83 days upright", "result": 98.8, "unit": "per cent"},
      {"measurement": "residual percent amount of TA 2005", "setting": "[4]", "result": "up to 98%"},
      {"measurement": "residual percent amount", "setting": "[5]", "result": "at least 95%"}
    ]}
  ]
}
